Where no end group is shown, it is not given here. PEG10kDa = 10 kDa linear methoxy-PEG propionaldehyde on the N-terminus; PEG20kDa = 20 kDa linear methoxy-PEG propionaldehyde on the N-terminus
Experiments:
human plasma FN = experiment: Isothermal Titration calorimetry (ITC) of peptide binding to fibronectin; conditions: pH 7.4 PBS, 25° C., triplicate
Experimental: Isothermal Titration calorimetry (ITC): ITC experiments were performed using a VP-ITC microcalorimeter (MicroCal, LLC) with a cell volume of 2.2 mL. In a typical experiment, the cell was filled with 1.4 mL of 2 μM human plasma FN and the syringe was filled with 1 mL of 28 μM FUD or PEG-FUD peptides. The temperature was set to 25° C. The titration experiment was performed in 39 injections (1×1, 4×4, and 34×8 μL) delivered in 120 sec intervals. Prior to injection, both FN and the peptides were dialyzed in separate dialysis bags overnight into the same PBS buffer (pH 7.4) solution. Routine analysis involved discarding of the first data point and subtraction of peptide into PBS buffer control run. Data were fit using one set of sites model Lavenberg-Marquardt nonlinear regression in Origin 7.0.
The binding of 10 kDa, 20 kDa, and 40 kDa PEG-FUD to FN was studied using Isothermal Titration calorimetry (ITC). This technique was used to determine the thermodynamic parameters as well as the binding constant (Kd) of the interaction. The peptide was injected into a human plasma FN solution in PBS at pH 7.4 and 25° C. in triplicate runs. […] A Kd of 6 (±3) nM was detected for FUD:FN. […] Similar entropy change of −65 (±3) cal/mol, −74 (±7) cal/mol, −66 (±7) cal/mol, and −73 (±2) and enthalpy change of −31 (±1) kcal/mol, −34 (±2) kcal/mol, −30 (±1) kcal/mol, and −32.5 (±0.5) kcal/mol were detected for the interaction of FUD and 10 kDa, 20 kDa, and 40 kDa PEG-FUD with FN, respectively. […] This observation is contrary to the expectation of PEG attachment diminishing a drug's affinity for its binding partner and presents an unexpected but desired feature of the PEG-FUD peptide.

[1] = system: Alexa 488-labeled human plasma FN; experiment: Matrix Assembly in vitro Assay (MAA), A488-FN deposition by AH1F fibroblasts; format: cell-based; conditions: 24 hours, viability-normalized fluorescence, n=4, FUD run alongside each conjugate
Alexa 488-labeled human plasma FN, sequence (P02751 32-608 limits assumed): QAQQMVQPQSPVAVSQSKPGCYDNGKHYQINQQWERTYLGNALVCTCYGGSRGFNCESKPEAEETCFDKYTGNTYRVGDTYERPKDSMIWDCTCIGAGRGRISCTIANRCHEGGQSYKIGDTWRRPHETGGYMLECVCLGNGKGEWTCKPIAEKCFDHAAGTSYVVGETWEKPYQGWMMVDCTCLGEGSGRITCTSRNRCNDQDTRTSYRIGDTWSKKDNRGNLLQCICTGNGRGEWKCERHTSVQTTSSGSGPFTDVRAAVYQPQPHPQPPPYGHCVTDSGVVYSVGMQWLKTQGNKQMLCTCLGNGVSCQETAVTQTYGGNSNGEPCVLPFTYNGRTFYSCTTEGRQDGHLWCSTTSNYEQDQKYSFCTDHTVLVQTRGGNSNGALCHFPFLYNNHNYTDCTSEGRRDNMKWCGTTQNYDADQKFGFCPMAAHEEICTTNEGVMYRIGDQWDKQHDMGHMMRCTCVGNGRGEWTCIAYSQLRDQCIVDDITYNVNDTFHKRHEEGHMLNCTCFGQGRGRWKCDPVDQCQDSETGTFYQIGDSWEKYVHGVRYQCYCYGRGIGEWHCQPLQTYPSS
Experimental: Matrix Assembly Assay: The matrix assembly assay was conducted in the 96-well plate format as described in the art. AH1F human skin fibroblast cells resuspended in 2% fetal bovine serum were added to each well for a density of 60,000 cells per well. A 1 hr incubation period at 37° C. followed to allow cell adhesion and spreading. FUD, PEG-FUD, or PEG-mFUD were added to each well following incubation. Immediately, Alexa Fluor® 488 fluorescence labeled human plasma fibronectin (A488-FN) was then added to each well for a final FN concentration of 11 μg/mL. The cells were then incubated for 24 hours at 37° C. Non-assembled FN was removed from each well by washing with Hank's Balanced Salt Solution (HBSS) containing Ca^2+ and Mg^2+. The well volume was restored to 60 μL with HBSS and a fluorescence reading from the bottom of each well was taken using a Synergy™ H1 (Biotek) plate reader (excitation: 485 nm, Emission: 538 nm). Cell viability was quantified using CellTiter-Glo® cell viability assay using the manufacturer's protocol. A 30 μL aliquot of HBSS was removed from each well and was replaced with 30 μL of the luminescence reagent prepared shortly beforehand. Luminescence was quantified using the same plate reader. The average of fluorescence values of a no A488FN or inhibitor control group were routinely subtracted from the readings of each well and were normalized using each well's corresponding luminescence value. Lastly, the cell viability normalized fluorescence values were expressed as a percentage of the 0 nM drug control group. The final results were processed using Graphpad Prism 7.0 software. IC50 values were extracted using a four-parameter dose-response curve function. Student's t test was used to determine significance of differences among peptides at a given drug concentration.
The PEG-FUD FN fibrillogenesis inhibitory performance was evaluated in vitro using the matrix assembly assay (MAA). The methodology of this assay is depicted in FIG. 8. The MAA quantifies ECM deposition of exogenous AlexaFluor® 488-labeled FN (A488FN) by a confluent monolayer of fibroblasts after an incubation period by measuring fluorescence of deposited FN. In this study, the performance of PEG-FUD peptides was compared to that of FUD and the PEG-mFUD control peptide using the AH1F human foreskin fibroblast cell line.

[2] = Fluorescence imaging (IVIS) of subcutaneous dose absorption; format: in vivo, mouse; conditions: for % dose remaining at the site of injection after 24 hours / apparent half-life at the site of injection: s.c. 12.5 mg/kg FUD equivalents; for apparent half-life at the site of injection: spiked with 1.5% Cy5 labeled drug, nude mice
Experimental: Preparation of Animal Experiment FUD and 10-40 kDa PEG-FUD Drug Dose: A 12.5 mg FUD equivalents per kg of mouse weight drug dose spiked with 1.5% Cy5 labeled drug was prepared by mixing an appropriate amount of unlabeled and labeled drug in a conical vial. The drug was then dialyzed ON into phosphate buffered saline (pH 7.4) using a 3000 MWCO dialysis membrane. The total volume of the dose was reduced to the appropriate value using a 3000 MWCO Amicon® Ultra-15 centrifugal unit. The final concentration of the drug was determined using a UV-vis spectrophotometer and the 646 nm extinction coefficient of Cy5, ε=271000 L·mol^−1·cm^−1.
10 week old mice weighing 20-23 g were placed under 2% isoflurane anesthesia and positioned on their abdomen inside of an IVIS Spectrum In Vivo Imaging System. A 100 uL dose containing 0.27 mg (12.5 mg/kg) of FUD or FUD equivalents of 10-40 kDa PEG-FUD that was spiked with 1.5% Cy5 labeled drug was delivered subcutaneously between the shoulder blades of the animals (n=3 per treatment group). The animals were imaged before the injection, immediately following injection, and at time points of 30 minutes and 1, 3, 6, 12, 24, 36, and 48 hours. The animals were sacrificed following the last time point and their organs were harvested for ex vivo fluorescence imaging and drug extraction and quantification. LivingImage® (PerkinElmer) software was used to analyze the views of each animal group. The autodraw feature of the software set to a 5% threshold was used to create unique regions of interest (ROI) on each animal at t=30 mins views that were consistently applied to each subsequent time point views to quantify drug levels present at the site of injection. Baseline autoflorescence values calculated from ROIs applied to “before injection” views were subtracted from the values of each time point's animals. The ROI values obtained from the t=30 mins views were used to calculate % dose remaining for each subsequent time point.

[3] = literature examples; cited from earlier work

human plasma FN, sequence (P02751 32-608 limits assumed): as above

For “10 kDa PEG-FUD: FUD N-terminally mono-PEGylated with 10 kDa linear methoxy-PEG propionaldehyde (PEG10kDa-KDQSPLAGESGETEYITEVYGNQQNPVDIDKKLPNETGFSGNMVETEDT)”, which Kd (human plasma FN) is on record?
The Kd was 4.6 nM.

What about the IC50 [1] of the same substance?
Its IC50 is 17 nM.

And the “migration into the site of injury (ear tag wound)” value ([2]; fluorescence imaging)?
Its value is “migration of 10 K PEG-FUD into the site of injury”.

And the “% dose remaining at the site of injection after 24 hours” value [2]?
Its value is 1.2%.

What about the “apparent half-life at the site of injection” value [2] of the same substance?
Its value is 2.8 h.

With “20 kDa PEG-FUD: FUD N-terminally mono-PEGylated with 20 kDa linear methoxy-PEG propionaldehyde (PEG20kDa-KDQSPLAGESGETEYITEVYGNQQNPVDIDKKLPNETGFSGNMVETEDT)” as the substance, how does the Kd (human plasma FN) read?
Its Kd is 10 nM.

And the IC50 [1]?
Its IC50 is 23 nM.

And the “% dose remaining at the site of injection after 24 hours” value [2]?
The value was 3.5%.

What about the “apparent half-life at the site of injection” value [2] of the same substance?
Its value is 6.2 h.

Which results are given for “40 kDa PEG-FUD: FUD N-terminally mono-PEGylated with 40 kDa branched methoxy-PEG propionaldehyde ({mPEG 40 kDa branched}-KDQSPLAGESGETEYITEVYGNQQNPVDIDKKLPNETGFSGNMVETEDT)”?
Kd (human plasma FN): 14.7 nM; IC50 [1]: 20 nM; % dose remaining at the site of injection after 24 hours [2]: 7.9%; apparent half-life at the site of injection [2]: 8.7 h

With “PEG-G120K-GH: literature example of a PEGylated protein with reduced activity” as the substance, how does the “reduction of activity upon PEGylation” value [3] read?
The value was 186 fold.
